Test results from patent publication US9840512B2, “Antidiabetic bicyclic compounds” (Merck Sharp & Dohme Corp., priority 2013, dated 2017).

Target: T1, human GPR40 (Homo sapiens, UniProt O14842)
Assay: Inositol Phosphate Turnover (IP1) Assay 1
Details: Human IP1 Assay 1, EC50, nM, HEK cells stably expressing human GPR40
Description: The assay is performed in 96-well format. HEK cells stably expressing human GPR40 are plated to be 60-80% confluent within 72 h. After 72 h, the plates are aspirated and the cells washed with inositol-free DMEM (ICN). The wash media is replaced with 150 μL of 3H-inositol labeling media (inositol-free media containing 0.4% human albumin or 0.4% mouse albumin, 1× pen/strep antibiotics, glutamine, 25 mM HEPES to which is added 3H-myo-inositol NEN #NET114A 1 mCi/mL, 25 Ci/mmol diluted 1:150 in loading media with a final specific radioactivity of 1 μCi/150 μL). Alternatively, the human and mouse albumin can be added after the overnight labeling step before the addition of LiCl.
The assay is typically run the next day after 18 h labeling. On the day of the assay, 5 μL of 300 mM LiCl is added to all wells and incubated at 37 degrees for 20 min. 0.75 μL of 200× compounds are added and incubated with the cells for 60 min at 37 degrees. The media is then aspirated off and the assay terminated with the addition of 60 μL 10 mM formic acid. The cells are lysed for 60 min at room temperature. 15-30 μL of lysate is mixed with 70 μL/1 mg YSi SPA beads (Amersham) in clear bottom Isoplates. The plates are shaken for 2 h at room temperature. Beads are allowed to settle and the plates are counted in the Wallac Microbeta.

T1 sequence (O14842 whole entry): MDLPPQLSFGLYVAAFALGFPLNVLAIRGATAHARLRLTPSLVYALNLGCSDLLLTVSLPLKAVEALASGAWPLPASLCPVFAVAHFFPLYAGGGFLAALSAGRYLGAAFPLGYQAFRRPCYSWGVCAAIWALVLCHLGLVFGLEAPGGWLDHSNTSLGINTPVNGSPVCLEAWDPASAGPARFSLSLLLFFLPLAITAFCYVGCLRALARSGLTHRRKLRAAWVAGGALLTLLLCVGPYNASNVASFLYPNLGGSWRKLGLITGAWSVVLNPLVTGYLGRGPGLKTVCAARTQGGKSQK

| Structure (SMILES) | EC50 [nM] |
| --- | --- |
| CC#C[C@@H](CC(=O)O)c1ccc2c(c1)CCC(c1ccc(-c3cc(OC)ccc3F)cc1)O2 (mixture of isomers) [Example 51] | 1200 |
| CC#C[C@@H](CC(=O)O)c1ccc2c(c1)CCC(c1ccc(OCc3ccccc3)c(-c3c(C)cccc3C)c1)O2 (mixture of isomers) [Example 52] | 248 |
| Cc1ccccc1-c1cc(F)c(C2CCc3cc4c(cc3O2)OC[C@H]4CC(=O)O)cc1-c1ccccc1C (mixture of isomers) [Example 59] | 2520 |
| Cc1cccc(C)c1-c1ccc(F)c(C2CCc3cc(CCC(=O)O)ccc3O2)n1 (racemic) [Example 3] | 3630 |
| Cc1cc(OCCS(C)(=O)=O)cc(C)c1-c1cccc(C2CCc3cc(CCC(=O)O)ccc3O2)c1 (racemic) [Example 6] | 1700 |
| COc1ccc(F)c(-c2ccc(C3CCc4ccc(CCC(=O)O)cc4O3)cc2C2=CCCC2(C)C)c1 (racemic) [Example 48] | 1020 |
| Cc1cccc(C)c1-c1cccc(C2CCc3cc(CCC(=O)O)ccc3O2)c1 (single isomer, unassigned) [Example 4] | 544 |
| Cc1cccc(C)c1-c1cccc(C2CCc3cc(CCC(=O)O)ccc3O2)c1 (single isomer, unassigned) [Example 5] | 1670 |
| CC#C[C@@H](CC(=O)O)c1ccc2c(c1)CCC(c1cc(-c3c(C)cccc3C)ccc1F)O2 (single isomer, unassigned) [Example 21] | 83 |
| CC#C[C@@H](CC(=O)O)c1ccc2c(c1)CCC(c1cc(-c3cccnc3C(F)(F)F)ccc1F)O2 (single isomer, unassigned) [Example 35] | 31 |
| CC#C[C@@H](CC(=O)O)c1ccc2c(c1)CCC(c1cc(-c3ccc(OC)nc3C)ccc1F)O2 (single isomer, unassigned) [Example 37] | 47 |
| CC#C[C@@H](CC(=O)O)c1ccc2c(c1)CCC(c1cc(-c3ccc(OC)nc3C)ccc1F)O2 (single isomer, unassigned) [Example 38] | 1690 |
| CC#C[C@@H](CC(=O)O)c1ccc2c(c1)CCC(c1cccc(-c3cccc4c3c(C(F)(F)F)nn4C)c1)O2 (single isomer, unassigned) [Example 41] | 175 |
| CC#C[C@@H](CC(=O)O)c1ccc2c(c1)CCC(c1cccc(-c3cccc4c3c(C(F)(F)F)nn4C)c1)O2 (single isomer, unassigned) [Example 42] | 1220 |
| Cc1cccc(C)c1-c1cccc(C2CCc3cc(CCC(=O)O)ccc3O2)c1 (centres unmarked) [Example 1, 3-(2-(2′,6′-dimethyl-[1,1′-biphenyl]-3-yl)chroman-6-yl)propanoic acid] | 1210 |
| Cc1ccccc1-c1ccc(F)c(C2CCc3cc4c(cc3O2)OC[C@H]4CC(=O)O)c1 (some centres unmarked) [Example 56] | 1910 |

Target: T1, human GPR40
Assay: FLIPR assay (agonist-induced calcium mobilization)
Details: Human FLIPR EC50, nM or % activation (EC50 values), GPR40/CHO NFAT BLA cells
Description: Human and mouse GPR40 stable cell-lines were generated in CHO cells stably expressing NFAT BLA (Beta-lactamase). […] The expression plasmids were transfected using lipofectamine (Life Technologies) following manufacturer's instructions. Stable cell-lines were generated following drug selection.
FLIPR (Fluorimetric Imaging Plate Reader, Molecular Devices) assays were performed to measure agonist-induced calcium mobilization of the stable clones. For the FLIPR assay, one day before assay, GPR40/CHO NFAT BLA cells were seeded into black-wall-clear-bottom 384-well plates (Costar) at 1.4×10e4 cells/20 μL medium/well. The cells were incubated with 20 μl/well of the assay buffer (HBSS, 0.1% BSA, 20 mM HEPES, 2.5 mM probenecid, pH 7.4) containing 8 μM fluo-4, AM, 0.08% pluronic acid at room temperature for 100 minutes. Fluorescence output was measured using FLIPR. Compounds were dissolved in DMSO and diluted to desired concentrations with assay buffer.

| Structure (SMILES) | EC50 [nM] |
| --- | --- |
| CC#C[C@@H](CC(=O)O)c1ccc2c(c1)CCC(c1ccc(-c3cc(OC)ccc3F)cc1)O2 (mixture of isomers) [Example 51] | 105 |
| CC#C[C@@H](CC(=O)O)c1ccc2c(c1)CCC(c1ccc(OCc3ccccc3)c(-c3c(C)cccc3C)c1)O2 (mixture of isomers) [Example 52] | 17 |
| Cc1ccccc1-c1cc(F)c(C2CCc3cc4c(cc3O2)OC[C@H]4CC(=O)O)cc1-c1ccccc1C (mixture of isomers) [Example 59] | 51 |
| Cc1cccc(C)c1-c1ccc(F)c(C2CCc3cc(CCC(=O)O)ccc3O2)n1 (racemic) [Example 3] | 292 |
| Cc1cc(OCCS(C)(=O)=O)cc(C)c1-c1cccc(C2CCc3cc(CCC(=O)O)ccc3O2)c1 (racemic) [Example 6] | 185 |
| COc1ccc(F)c(-c2ccc(C3CCc4ccc(CCC(=O)O)cc4O3)cc2C2=CCCC2(C)C)c1 (racemic) [Example 48] | 12 |
| Cc1cccc(C)c1-c1cccc(C2CCc3cc(CCC(=O)O)ccc3O2)c1 (single isomer, unassigned) [Example 4] | 38 |
| Cc1cccc(C)c1-c1cccc(C2CCc3cc(CCC(=O)O)ccc3O2)c1 (single isomer, unassigned) [Example 5] | 85 |
| CC#C[C@@H](CC(=O)O)c1ccc2c(c1)CCC(c1cc(-c3c(C)cccc3C)ccc1F)O2 (single isomer, unassigned) [Example 21] | 26 |
| CC#C[C@@H](CC(=O)O)c1ccc2c(c1)CCC(c1cc(-c3cccnc3C(F)(F)F)ccc1F)O2 (single isomer, unassigned) [Example 35] | 37 |
| CC#C[C@@H](CC(=O)O)c1ccc2c(c1)CCC(c1cc(-c3ccc(OC)nc3C)ccc1F)O2 (single isomer, unassigned) [Example 37] | 38 |
| CC#C[C@@H](CC(=O)O)c1ccc2c(c1)CCC(c1cc(-c3ccc(OC)nc3C)ccc1F)O2 (single isomer, unassigned) [Example 38] | 83 |
| CC#C[C@@H](CC(=O)O)c1ccc2c(c1)CCC(c1cccc(-c3cccc4c3c(C(F)(F)F)nn4C)c1)O2 (single isomer, unassigned) [Example 41] | 64 |
| CC#C[C@@H](CC(=O)O)c1ccc2c(c1)CCC(c1cccc(-c3cccc4c3c(C(F)(F)F)nn4C)c1)O2 (single isomer, unassigned) [Example 42] | 74 |
| Cc1cccc(C)c1-c1cccc(C2CCc3cc(CCC(=O)O)ccc3O2)c1 (centres unmarked) [Example 1, 3-(2-(2′,6′-dimethyl-[1,1′-biphenyl]-3-yl)chroman-6-yl)propanoic acid] | 102 |
| Cc1ccccc1-c1ccc(F)c(C2CCc3cc4c(cc3O2)OC[C@H]4CC(=O)O)c1 (some centres unmarked) [Example 56] | 117 |
